We go through one compound from patent publication US20160101054A1, “SUSTAINED DELIVERY OF DRUGS FROM BIODEGRADABLE POLYMERIC MICROPARTICLES” (Yale University, priority 2008, published 2016).

Assay [1] concerns EGFR. Particulars: in vivo; cited from earlier work.
The target in assay [2] is T1, EGFR (Rattus norvegicus, UniProt G3V6K6).
T1 construct: cells expressing EGFR at normal levels; endogenous in cells; host or cells: FR3T3 (Fisher rat 3T3 fibroblasts)
In words: Bioactivity of AG1478: western blot of phosphorylated EGFR in FR3T3 cells after EGF. It is filed as cell-based. Particulars: for bioactivity by western blot of activated EGFR: FR3T3 cells expressing EGFR at normal levels, concentration equal to IC50, EGF 100 ng/mL. The procedure:
Microsphere size was ascertained using a Multisizer™ 3 Coulter Counter® and confirmed visually via SEM. […] Relative bioactivity was determined using the gray mean value for each phospho-EGFR band.
A general note: In western blotting, separated proteins are transferred to a membrane and probed.

For the compound `COc1cc2ncnc(Nc3cccc(Cl)c3)c2cc1OC` [AG1478], in assay [1], the “EGFR upregulation and activation of astrocytes, survival of RGCs” value was “reverses this upregulation and activation of astrocytes and increases the survival of RGCs”. The results for the “bioactivity by western blot of activated EGFR” value in assay [2] (listed as non-encapsulated AG1478) and in assay [2] (listed as non-encapsulated inhibitor) were 89±4.5% and 89±2.7%, respectively. For the same compound, the “inhibition in FR3T3 cells” value in assay [2] (at 3 mM (~[…] polymer)) is reported as “greater than 95%”.
